Data on 15 molecules can be found in US20230131427A1, “FUNGICIDAL COMPOSITIONS” (SYNGENTA CROP PROTECTION AG, priority 2020, published 2023).

Test [1] has as its system Phakopsora pachyrhizi. Kind of test: Example B5: preventative activity against Phakopsora pachyrhizi (soybean rust), whole soybean plants sprayed, leaf disks inoculated. The test is classed as in vivo. As for the experimental part:
Whole soybean plants are treated with the recited active ingredients 4 weeks after planting. 1 day after spraying leaf disks are cut from the first trifoliate leaf. Five repetitions at each rate are conducted. The leaf disks are inoculated with Phakopsora pachyrhizi (Asian soybean rust) one day after treatment.
Evaluation of the leaf disks is conducted 11 to 14 days after inoculation and the activity is derived from the relation of the treated vs untreated, infested check (100=no disease, no damage to the leaf, 0=high infestation, leaf damaged heavily). The rates of the active ingredients used are given in the tables as g active ingredient (a.i.)/ha.

The subject of test [2] is Glomerella lagenarium syn. Colletotrichum lagenarium. Kind of test: Example B1: mixtures, preventative activity against Glomerella lagenarium syn. Colletotrichum lagenarium, liquid culture. The test is classed as cell-based. To be noted: for inhibition at 0.1 ppm / inhibition at 0.3 ppm: Colletotrichum orbiculare, read-out: Activity (%) B. The text has this: (§1) This occurs whenever the action of an active ingredient combination is greater than the sum of the actions of the individual components. The action to be expected E for a given active ingredient combination obeys the so-called COLBY formula and can be calculated as follows (COLBY, S. R. “Calculating synergistic and antagonistic responses of herbicide combination”. Weeds, Vol. 15, pages 20-22; 1967):
(§2) If the action actually observed (O) is greater than the expected action (E), then the action of the combination is super-additive, i.e. there is a synergistic effect. In mathematical terms, synergism corresponds to a positive value for the difference of (O-E). In the case of purely complementary addition of activities (expected activity), said difference (O-E) is zero. A negative value of said difference (O-E) signals a loss of activity compared to the expected activity.
(§3) Conidia of the fungus from cryogenic storage were directly mixed into nutrient broth (PDB potato dextrose broth). A DMSO solution of the test compounds was placed into a microtiter plate (96-well format) and the nutrient broth containing the fungal spores was added to it.
(§4) Fungicidal activity was evaluated on a 100-0 scale (100=no disease growth; 0=well completely covered by mycelium).

Test [3] concerns Septoria tritici. Description: Example B3: mixtures, preventative activity against Septoria tritici (leaf blotch), liquid culture. The test is classed as cell-based. The settings on record: for inhibition at 0.1 ppm / inhibition at 0.3 ppm: Zymoseptoria tritici, read-out: Activity (%) B.
Description: as §1, §2, §3, §4

The subject of test [4] is Mycosphaerella arachidis syn. Cercospora arachidicola. Description: Example B4: mixtures, preventative activity against Mycosphaerella arachidis syn. Cercospora arachidicola (brown leaf spot of peanut), liquid culture. The test is classed as cell-based. The settings on record: component B alone.
Description: as §1, §2, §3
Cercospora arachidicola (Brown leaf spot of peanut). Fungicidal activity was evaluated on a 100-0 scale (100=no disease growth; 0=well completely covered by mycelium).

For test [5], the system named is Septoria glycines. Kind of test: Example B2: mixtures, preventative activity against Septoria glycines (brown spot), liquid culture. The test is classed as cell-based. The settings on record: component B alone; for inhibition at 0.1 ppm / inhibition at 0.3 ppm: Septoria glycines; for inhibition at 0.1 ppm: read-out: Activity (%) B.
Description: as §1, §2
Conidia of the fungus harvested from a fresh culture grown on artificial media, were directly mixed into nutrient broth (PDB potato dextrose broth). A DMSO solution of the test compounds was placed into a microtiter plate (96-well format) and the nutrient broth containing the fungal spores was added to it.
as §4

Setting [6] is: Phakopsora pachyrhizi, foliar, read-out: Observed Activity (% of untreated) against Phakopsora pachyrhizi.
Setting [7] is: active ingredient alone, 2.25 g/ha.
The mark [8] stands for this setting: active ingredient alone, 4.5 g/ha.
Setting [9] is: active ingredient alone, 9 g/ha.
[10] abbreviates: Phakopsora pachyrhizi, foliar, applied alone, 22.5 g/ha, read-out: Observed Activity (% of untreated) against Phakopsora pachyrhizi.
[11] abbreviates: Phakopsora pachyrhizi, foliar, applied alone, 45 g/ha, read-out: Observed Activity (% of untreated) against Phakopsora pachyrhizi.
Where [12] appears, read: Mycosphaerella arachidis, 0.1 ppm.
Where [13] appears, read: component B alone, 0.1 ppm, 100-0 scale.
Setting [14] is: component B alone, 0.3 ppm, 100-0 scale.

Where two headings read alike, the source gives them in different places.

Take `N#Cc1c[nH]cc1-c1cccc2c1OC(F)(F)O2` [fludioxonil, reference compound]: in test [1] (setting [6]), the inhibition at 450 g/ha is 0% and the inhibition at 900 g/ha is 1%. In addition, in test [2], the inhibition at 0.1 ppm is 0% and the inhibition at 0.3 ppm was 0%. In test [3] (72 h), the inhibition at 0.1 ppm was 0% and the inhibition at 0.3 ppm came to 20%. In addition, in test [3], the inhibition at 0.1 ppm turned out to be 0% and the inhibition at 0.3 ppm came to 20%.

In the case of `Cc1cccc(-n2nnn(C)c2=O)c1COc1ccn(-c2ccc(Cl)cc2)n1` [metyltetraprole, reference compound], the “Observed Activity (%) (% of untreated)” value in test [1] (setting [7]) was determined as 1%; in test [1] (setting [8]) it was 0%; in test [1] (setting [9]), 7%; in test [1] (active ingredient alone, 18 g/ha), 67%. For the same molecule, the “Observed Activity (% of untreated) against Phakopsora pachyrhizi” value (shortened to “Observed Activity (% of untreated)”) in test [1] (applied alone, 2.25 g/ha) came to 1%; in test [1] (applied alone, 4.5 g/ha), 0%; in test [1] (applied alone, 9 g/ha) it was 7%; in test [1] (applied alone, 18 g/ha), 67%. Besides, the “Activity (%) B” value in test [2] (component B alone, 0.1 ppm) was 90%; in test [2] (component B alone, 0.3 ppm) it was 90%.

As for `CCOC(=O)C1CC(=O)C(=C(O)C2CC2)C(=O)C1` (stereo not drawn) [trinexapac-ethyl, reference compound], the inhibition at 22.5 g/ha in test [1] (setting [10]) was 0%; in test [1] (Phakopsora pachyrhizi, foliar, applied alone, 22.5 g/ha, read-out: Observed Activity (%) (% of untreated) against Phakopsora pachyrhizi) it was 0%. The inhibition at 45 g/ha in test [1] (setting [11]) came out at 0%; in test [1] (Phakopsora pachyrhizi, foliar, applied alone, 45 g/ha, read-out: Observed Activity (%) (% of untreated) against Phakopsora pachyrhizi), 0%. Further, the inhibition at 0.1 ppm in test [2] (component B alone, 0.1 ppm) came to 0%. Further, in test [2] (component B alone, 0.3 ppm), the inhibition at 0.3 ppm came out at 0%.

As to `CC(C)c1ccc(Cl)cc1CN(C(=O)c1c(C(F)F)nn(C)c1F)C1CC1` [isoflucypram], the figures for the “Activity (%) B” value in test [4] (0.1 ppm) and in test [4] (0.3 ppm) were 90% and 100%, respectively.

With `O=C(NCCc1ncc(C(F)(F)F)cc1Cl)c1ccccc1C(F)(F)F` [fluopyram], the inhibition at 0.1 ppm in test [3] (72 h, component B alone, 0.1 ppm, 72 hrs, 100=no disease growth) was found to be 0%; in test [4] (setting [12]), 0%. For the same molecule, the inhibition at 0.3 ppm in test [3] (72 h, component B alone, 0.3 ppm, 72 hrs) came out at 50%; in test [4] (Mycosphaerella arachidis, 0.3 ppm), 90%.

For the molecule `CO/C=C(/C(=O)OC)c1ccccc1COc1cccc(C(F)(F)F)n1` [picoxystrobin], the “Activity (%) B” value in test [2] (component B alone, 0.1 ppm) is given as 90%; in test [2] (component B alone, 0.3 ppm), 90%.

Take `Cn1cc(C(=O)Nc2ccccc2-c2cc(F)c(F)c(F)c2)c(C(F)F)n1` [fluxapyroxad, reference compound]: the “Observed Activity (% of untreated)” value is reported as 8% in test [1] (applied alone, 2.25 g/ha); 7% in test [1] (applied alone, 4.5 g/ha); 66% in test [1] (applied alone, 9 g/ha). Besides, the “Activity (%) B” value in test [2] (component B alone, 0.1 ppm) is 0%; in test [2] (component B alone, 0.3 ppm) it was 0%.

`CON(C(=O)c1cn(C)nc1C(F)F)C(C)Cc1c(Cl)cc(Cl)cc1Cl` (stereo not drawn) [pydiflumetofen, reference compound]: the “Observed Activity (%) (% of untreated) against Phakopsora pachyrhizi” value in test [1] (applied alone, 22.5 g/ha) came to 28%; in test [1] (applied alone, 45 g/ha), 74%. Also, the “Activity (%) B” value is on record as 0% in test [2] (component B alone, 0.1 ppm) and 0% in test [2] (component B alone, 0.3 ppm).

Take `[Cl-].[Cu+2].[Cu+2].[OH-].[OH-].[OH-]` [copper oxychloride, reference compound]: the “Observed Activity (% of untreated)” value is on record as 2% in test [1] (applied alone, 22.5 g/ha) and 5% in test [1] (applied alone, 45 g/ha). Besides, the “Activity (%) B” value in test [2] (component B alone, 0.1 ppm) is reported as 0%; in test [2] (component B alone, 0.3 ppm), 0%.

Regarding `Cc1nc2c(F)c(F)ccc2cc1Oc1cccc(F)c1C(C)(C)O` [ipflufenoquin], the “Activity (%) B” value in test [2] (component B alone, 0.1 ppm) is 20%; in test [2] (component B alone, 0.3 ppm) it was 100%; in test [5] (0.1 ppm, 100-0 scale) it was 0%; in test [5] (0.3 ppm, 100-0 scale), 0%; in test [3] (setting [13]) it was 0%; in test [3] (setting [14]), 20%.

As to `CON=C(C(=O)OC)c1ccccc1CON=C(C)c1cccc(C(F)(F)F)c1` [trifloxystrobin, reference compound], the inhibition at 2.25 g/ha in test [1] (Phakopsora pachyrhizi, foliar, applied alone, 2.25 g/ha, read-out: Observed Activity (% of untreated) against Phakopsora pachyrhizi) worked out at 0%. Moreover, the inhibition at 4.5 g/ha in test [1] (Phakopsora pachyrhizi, foliar, applied alone, 4.5 g/ha, read-out: Observed Activity (% of untreated) against Phakopsora pachyrhizi) came out at 3%. In addition, the inhibition at 9 g/ha in test [1] (Phakopsora pachyrhizi, foliar, applied alone, 9 g/ha, read-out: Observed Activity (% of untreated) against Phakopsora pachyrhizi) was 0%. Further, the inhibition at 18 g/ha in test [1] (Phakopsora pachyrhizi, foliar, applied alone, 18 g/ha, read-out: Observed Activity (% of untreated) against Phakopsora pachyrhizi) was determined as 19%. In addition, the inhibition at 0.1 ppm in test [2] (component B alone, 0.1 ppm) is 90%; in test [5] (0.1 ppm, 100-0 scale), 90%. The inhibition at 0.3 ppm in test [2] (component B alone, 0.3 ppm) amounted to 90%; in test [5] (0.3 ppm, 100-0 scale), 100%.

For `COc1ccnc(C(=O)N[C@@H](C)C(=O)O[C@@H](C)C(c2ccc(F)cc2)c2ccc(F)cc2)c1OC(C)=O` [florylpicoxamid, reference compound], the “Activity (%) B” value was 0% in test [5] (0.01 ppm); 0% in test [5] (0.01 ppm, 100-0 scale); 20% in test [5] (0.02 ppm); 20% in test [5] (0.02 ppm, 100-0 scale); 0% in test [3] (component B alone, 0.01 ppm, 100-0 scale); 0% in test [3] (component B alone, 0.01 ppm, 72 hrs). Moreover, the “Activity (%) B” value amounted to 20% in test [3] (component B alone, 0.02 ppm, 100-0 scale); 20% in test [3] (component B alone, 0.02 ppm, 72 hrs); 70% in test [4] (0.01 ppm); 90% in test [4] (0.02 ppm).

As for `Cn1cc(C(=O)Nc2cccc3c2[C@@H]2CC[C@H]3C2=C(Cl)Cl)c(C(F)F)n1` (racemic) [benzovindiflupyr, reference compound], the figures for the “Observed Activity (%) (% of untreated)” value in test [1] (setting [7]), in test [1] (setting [8]) and in test [1] (setting [9]) were 34%, 80% and 99%, respectively. Also, the “Observed Activity (% of untreated)” value in test [1] (applied alone, 2.25 g/ha) worked out at 34%; in test [1] (applied alone, 4.5 g/ha), 80%; in test [1] (applied alone, 9 g/ha), 99%. Besides, the “Activity (%) B” value was found to be 50% in test [2] (component B alone, 0.1 ppm); 100% in test [2] (component B alone, 0.3 ppm); 50% in test [3] (setting [13]); 70% in test [3] (setting [14]).

Turning to `OC(Cc1ccccc1Cl)(Cn1nc[nH]c1=S)C1(Cl)CC1` (stereo not drawn) [proth ioconazole, prothioconazole, reference compound], the inhibition at 22.5 g/ha in test [1] (Phakopsora pachyrhizi, foliar, active ingredient alone, 22.5 g/ha, read-out: Observed Activity (%) (% of untreated)) was found to be 47%; in test [1] (setting [10]) it was 47%. Also, the inhibition at 45 g/ha in test [1] (Phakopsora pachyrhizi, foliar, active ingredient alone, 45 g/ha, read-out: Observed Activity (%) (% of untreated)) is 80%; in test [1] (setting [11]), 80%. The inhibition at 90 g/ha in test [1] (Phakopsora pachyrhizi, foliar, active ingredient alone, read-out: Observed Activity (%) (% of untreated)) is 94%; in test [1] (Phakopsora pachyrhizi, foliar, applied alone, read-out: Observed Activity (% of untreated) against Phakopsora pachyrhizi), 94%. Further, the inhibition at 0.3 ppm in test [2] (component B alone, 0.3 ppm) is 50%; in test [5] (0.3 ppm, 100-0 scale) it was 90%. Moreover, the “Activity (%) B” value was determined as 20% in test [2] (component B alone, 0.1 ppm) and 50% in test [5] (0.3 ppm). In addition, the inhibition at 0.1 ppm in test [5] (0.1 ppm, 100-0 scale) worked out at 90%.

Regarding `O=C1c2ccccc2C(=O)N1SC(Cl)(Cl)Cl` [folpet], the inhibition at 0.1 ppm came out at 0% in test [3] (setting [13]) and 20% in test [4] (setting [12]). In addition, in test [3] (setting [14]), the inhibition at 0.3 ppm was 0%.
